# Experimental data taken from patent US10273263B2, “Pro-drug forming compounds” (priority 2013, dated 2019).
# Where two headings read alike, the source gives them in different places.
# Columns and labels:
# [1] = test system: ovarectomized female rats; settings: compared with estradiol and ethinyl estradiol; cited from earlier work
# [2] = oral biological activity: % uterine weight increase compared to vehicle; format: in vivo, rat; settings: Rattus norvegicus, oral; for change in vivo at 0.03 mg: 30.0 μg; for change in vivo at 0.01 mg: 10.0 μg
# Description: Exemplary compounds were tested for: oral biological activity (Table 1); binding to human carbonic anhydrase II (hCA 2) (Table 2); and, for some compounds enzymatic saponification (Table 3).
# sulfatase = target: T1, sulfatase (Homo sapiens, UniProt P08842); settings: in women; cited from earlier work
# T1 construct: host or cells: in vivo, women
# T1 sequence (P08842 22-583): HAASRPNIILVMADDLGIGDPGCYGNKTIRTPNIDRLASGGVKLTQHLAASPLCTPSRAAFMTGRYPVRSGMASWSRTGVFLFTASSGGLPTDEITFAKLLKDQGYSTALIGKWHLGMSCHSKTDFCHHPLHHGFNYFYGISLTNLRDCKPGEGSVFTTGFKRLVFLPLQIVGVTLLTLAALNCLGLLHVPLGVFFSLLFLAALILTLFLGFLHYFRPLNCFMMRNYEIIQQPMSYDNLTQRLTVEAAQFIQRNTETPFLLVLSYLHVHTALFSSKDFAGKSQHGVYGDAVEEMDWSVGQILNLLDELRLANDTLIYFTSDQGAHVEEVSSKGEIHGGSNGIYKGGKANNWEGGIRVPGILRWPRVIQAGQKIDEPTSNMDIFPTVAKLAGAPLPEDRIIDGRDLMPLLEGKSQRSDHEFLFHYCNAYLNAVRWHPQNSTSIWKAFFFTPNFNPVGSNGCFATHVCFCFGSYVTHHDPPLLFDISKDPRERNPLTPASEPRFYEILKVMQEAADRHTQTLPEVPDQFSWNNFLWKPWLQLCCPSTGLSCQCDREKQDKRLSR
# [3] = target: human carbonic anhydrase II (hCA 2) (Homo sapiens, UniProt P00918); assay: Human Carbonic Anhydrase II inhibition; format: biochemical
Compound,estrogenic activity after oral administration [1],change in vivo at 0.03 mg [2],inhibition of sulfatase (sulfatase),IC50 ([3]; read-out: hCAII (IC50 nM)),change in vivo at 0.01 mg [2],IC50 [3]
"C[C@]12CCC3c4ccc(OS(N)(=O)=O)cc4CCC3C1CC[C@@H]2O (stereo partly drawn) [Compound J995, (13S,17S)-17-hydroxy-13-methyl-7,8,9,11,12,13,14,15,16,17-decahydro-6H-cyclopenta[a]phenanthren-3-yl sulfamate, reference compound]",higher estrogenic activity after oral administration than estradiol and ethinyl estradiol,203%,acted as an inhibitor of sulfatase,295 nM,–,–
"CC(C)[C@H](NC(=O)c1ccc(S(N)(=O)=O)cc1)C(=O)O[C@H]1CCC2C3CCc4cc(O)ccc4C3CC[C@@]21C (stereo partly drawn) [Compound 19A, [(13S,17S)-3-hydroxy-13-methyl-6,7,8,9,11,12,14,15,16,17-decahydrocyclopenta[a]phenanthren-17-yl] (2S)-3-methyl-2-[(4-sulfamoylbenzoyl)amino]butanoate]",–,–,–,202 nM,267%,–
"C[C@H](NC(=O)c1ccc(S(N)(=O)=O)cc1)C(=O)O[C@H]1CCC2C3CCc4cc(O)ccc4C3CC[C@@]21C (stereo partly drawn) [Compound 12A, (2S)-((13S,17S)-3-hydroxy-13-methyl-7,8,9,11,12,13,14,15,16,17-decahydro-6H-cyclopenta[a]-phenanthren-17-yl) 2-(4-sulfamoylbenzamido)propanoate]",–,271%,–,–,–,250 nM
"CC(C)(NC(=O)c1ccc(S(N)(=O)=O)cc1)C(=O)O[C@H]1CCC2C3CCc4cc(O)ccc4C3CC[C@@]21C (stereo partly drawn) [Compound 20A, [(13S,17S)-3-hydroxy-13-methyl-6,7,8,9,11,12,14,15,16,17-decahydrocyclopenta[a]phenanthren-17-yl] 2-methyl-2-[(4-sulfamoylbenzoyl)amino]propanoate]",–,–,–,–,97.1%,232 nM
"C[C@]12CCC3c4ccc(O)cc4CCC3C1CC[C@@H]2OC(=O)COC(=O)c1ccc(S(N)(=O)=O)cc1 (stereo partly drawn) [Compound 3A, 2-((13S,17S)-3-hydroxy-13-methyl-7,8,9,11,12,13,14,15,16,17-decahydro-6H-cyclopenta[a]phenanthren-17-yloxy)-2-oxoethyl 4-sulfamoylbenzoate]",–,197%,–,250 nM,–,–
